The text below walks through data of PubChem BioAssay AID602334 (Sanford-Burnham Center for Chemical Genomics, 2012).

What is called EC50 is the concentration at which the effect is half-maximal.

Structures are written as SMILES. Values joined by “and” are separate entries in the source; they are usually repeats but may differ in a detail not shown here. Equal values may be shown once. Active and inactive are the calls of the source. The rule behind the calls is not given here.

Sequence of Neurotensin receptor type 2 (Homo sapiens) (O95665 whole entry, looked up): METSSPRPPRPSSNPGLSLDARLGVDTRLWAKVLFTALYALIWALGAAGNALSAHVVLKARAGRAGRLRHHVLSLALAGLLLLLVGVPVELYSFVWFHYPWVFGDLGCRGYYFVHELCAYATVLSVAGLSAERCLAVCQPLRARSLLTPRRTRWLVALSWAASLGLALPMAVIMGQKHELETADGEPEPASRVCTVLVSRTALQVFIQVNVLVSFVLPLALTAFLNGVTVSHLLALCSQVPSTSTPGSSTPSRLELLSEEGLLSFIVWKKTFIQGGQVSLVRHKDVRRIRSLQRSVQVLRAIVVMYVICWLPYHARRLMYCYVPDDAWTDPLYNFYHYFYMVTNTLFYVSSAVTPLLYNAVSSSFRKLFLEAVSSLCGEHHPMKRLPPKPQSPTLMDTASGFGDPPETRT

This experiment concerns the target Neurotensin receptor type 2 (Homo sapiens) (UniProt O95665). Description: activation of neurotensin receptor 2 – imaging, image-based, set 2, selectivity assay for NTR1 agonist project, SAR follow-up (AID 602334). The conditions noted are these: NTR2-expressing cells, image-based receptor agonism assay.
For the molecule `COc1cc2c3nnc(-c4ccccc4)c-3cn(Cc3ccccc3)c2cc1OC`, the EC50 result was “inactive”.
For `COc1cc2nc(Cc3ccccc3)nc(N3CCN(c4ccccc4OC)CC3)c2cc1OC`, the EC50 was > 80 µM (inactive).
The result for `COc1ccc2c3nnc(-c4ccc(C)cc4)c-3cn(Cc3ccccc3)c2c1` reads “inactive”.
Then `COc1ccc(N2CCN(c3nc(C4CCC4)nc4cc(OC)c(OC)cc34)CC2)c(OC)c1`, with > 80 µM (inactive); and `COc1cc2c3nnc(-c4ccc(C)cc4)c-3cn(Cc3ccc(F)cc3)c2cc1OC`, with 9.08 µM.
In the case of `COc1cccc(OC)c1-c1cc(C(=O)N[C@@H](CC(C)C)C(=O)O)nn1-c1ccnc2cc(Cl)ccc12`, the EC50 was > 80 µM (inactive).
The result for `COc1cc2nc(C3CC3)nc(N3CCN(c4ccccc4Cl)CC3)c2cc1OC` reads > 80 µM (inactive); that for `COc1cc2c3nnc(-c4ccc(C)c(C)c4)c-3cn(Cc3ccccc3)c2cc1OC`, > 80 µM (inactive).
On to `COc1cc2c3nnc(-c4ccc(Cl)cc4)c-3cn(Cc3ccccc3)c2cc1OC`, for which the EC50 was 8.47 µM.
Turning to `COc1cc2c3nnc(-c4ccccc4)c-3cn(Cc3ccc(F)cc3)c2cc1OC`, the EC50 was > 80 µM (inactive).
The result for `COc1ccccc1-c1cc(C(=O)N[C@@H](CC(C)C)C(=O)O)nn1-c1ccnc2cc(Cl)ccc12` reads > 80 µM (inactive); that for `CCc1ccc(-c2nnc3c4cc(OC)c(OC)cc4n(Cc4ccc(F)cc4)cc2-3)cc1`, “inactive”.
For `COc1ccc2c(c1)c1nnc(-c3ccc(F)cc3)c-1cn2Cc1ccccc1`, the EC50 is 17 µM.
Then `COc1cc2nc(C3CC3)nc(N3CCN(S(=O)(=O)c4ccccc4)CC3)c2cc1OC`, with > 80 µM (inactive).
The result for `COc1cccc(OC)c1-c1nc(C(=O)N[C@H](CC(C)C)C(=O)O)cn1-c1ccnc2cc(Cl)ccc12` reads > 80 µM (inactive); that for `C=Cc1nc(N2CCN(c3ccccc3OC)CC2)c2cc(OC)c(OC)cc2n1`, > 80 µM (inactive); that for `Cc1ccc(Cn2cc3c(-c4ccc(F)cc4)nnc-3c3cc4c(cc32)OCO4)cc1`, > 80 µM (inactive).
For `CCOc1ccc(-c2nnc3c4cc(OC)c(OC)cc4n(Cc4ccccc4)cc2-3)cc1`, the EC50 was > 80 µM (inactive).
Then `COc1cccc(OC)c1-c1nc(C(=O)N[C@@H](CC(C)C)C(=O)O)cn1-c1cccc2ccccc12`, with > 80 µM (inactive); and `COc1cc2nc(CCN3CCN(c4ccccc4OC)CC3)nc(N3CCN(c4ccccc4OC)CC3)c2cc1OC`, with > 80 µM (inactive).
The result for `COc1cc2nc(C3CCC3)nc(N3CCN(c4ccccc4F)CC3)c2cc1OC` reads > 80 µM (inactive); that for `COc1cc2c3nnc(-c4ccc(C)cc4)c-3cn(Cc3ccc(C)cc3)c2cc1OC`, 12.7 µM.
Consider `COc1cc2c3nnc(-c4ccc(F)cc4)c-3cn(Cc3ccccc3N(C)C)c2cc1OC`, for which the half-maximal effective concentration (EC50) is 4.37 µM and 3.73 µM.
For `COc1cc2nc(C3CC3)nc(N3CCN(C(=O)c4ccccc4)CC3)c2cc1OC`, the EC50 was > 80 µM (inactive).
On to `Cc1ccc(-c2nnc3c4cc5c(cc4n(Cc4ccccc4)cc2-3)OCO5)cc1C`, for which the EC50 is 1.78 µM.
Then `COc1cc2nc(C3CCC3)nc(N3CCN(c4ccccc4)CC3)c2cc1OC`, with > 80 µM (inactive).
Then `COc1cc2nc(C(C)C)nc(N3CCN(c4ccccc4OC)CC3)c2cc1OC`, with > 80 µM (inactive); and `CCc1nc(N2CCN(c3ccccc3OC)CC2)c2cc(OC)c(OC)cc2n1`, with > 80 µM (inactive).
Then `COc1cc2nc(C3CCC3)nc(N3CCN(c4ccccc4C)CC3)c2cc1OC`, with > 80 µM (inactive); and `COc1cc2nc(CC(C)C)nc(N3CCN(c4ccccc4OC)CC3)c2cc1OC`, with > 80 µM (inactive).
As for `COc1cc2c3nnc(-c4ccc(F)cc4)c-3cn(Cc3ccc(Cl)cc3)c2cc1OC`, the 50% effective concentration (EC50) was 15.8 µM.
The result for `COc1cc2c3nnc(-c4ccc(Cl)cc4)c-3cn(Cc3ccc(C)cc3)c2cc1OC` reads > 80 µM (inactive); that for `COc1cc2nc(C3CCC3)nc(N3CCN(c4ccccc4OC)CC3)c2cc1OC`, > 80 µM (inactive); that for `COc1ccc(-c2nnc3c4cc(OC)c(OC)cc4n(Cc4ccc(C)cc4)cc2-3)cc1`, 10.6 µM.
The result for `COc1cc2c3nnc(-c4ccc(F)cc4)c-3cn(Cc3ccc(C)cc3)c2cc1OC` reads 15 µM and 15.7 µM; that for `COc1cc2nc(C3CC3)nc(N3CCN(Cc4ccc(C)cc4)CC3)c2cc1OC`, > 80 µM (inactive).
The result for `COc1cc2nc(C3CCCC3)nc(N3CCN(c4ccccc4OC)CC3)c2cc1OC` reads > 80 µM (inactive); that for `COc1ccc(Cn2cc3c(-c4ccc(F)cc4)nnc-3c3cc(OC)c(OC)cc32)cc1`, 14.7 µM; that for `COc1cc2nc(C3CC3)nc(N3CCNCC3)c2cc1OC`, > 80 µM (inactive).
With `COc1ccc2nc(C3CCC3)nc(N3CCN(c4ccccc4OC)CC3)c2c1`, the EC50 was > 80 µM (inactive).
Then `CCOc1ccccc1N1CCN(c2nc(C3CC3)nc3cc(OC)c(OC)cc23)CC1`, with > 80 µM (inactive); and `COc1cc2c3nnc(-c4ccc(F)cc4)c-3cn(Cc3ccccc3)c2cc1OC`, with 9.39 µM and 7.28 µM; and `COc1ccc2nc(C3CC3)nc(N3CCN(c4ccccc4OC)CC3)c2c1`, with > 80 µM (inactive).
Take `COc1ccc2c3nnc(-c4ccc(C)cc4)c-3cn(Cc3ccc(C)cc3)c2c1`: the EC50 was > 80 µM (inactive).
Then `COc1cc2nc(C3CCC3)nc(N3CCN(c4ccccn4)CC3)c2cc1OC`, with > 80 µM (inactive).
For `COc1cc2c3nnc(-c4ccc(F)cc4)c-3cn(Cc3ccccc3F)c2cc1OC`, the concentration giving a half-maximal response (EC50) was 3.61 µM.
The result for `COc1cc2nc(C3CCC3)nc(N3CCN(c4c(C)cccc4C)CC3)c2cc1OC` reads > 80 µM (inactive).
Then `CCCc1nc(N2CCN(c3ccccc3OC)CC2)c2cc(OC)c(OC)cc2n1`, with > 80 µM (inactive).
In the case of `COc1cc2c3nnc(-c4ccc(F)cc4)c-3cn(Cc3ccccc3C)c2cc1OC`, the concentration giving a half-maximal response (EC50) is 6.91 µM.
The result for `Fc1ccc(Cn2cc3c(-c4ccc(Cl)cc4)nnc-3c3cc4c(cc32)OCO4)cc1` reads “inactive”; that for `COc1cc2nc(C3CC3)nc(N3CCN(C(=O)OC(C)(C)C)CC3)c2cc1OC`, > 80 µM (inactive); that for `COc1ccc2c3nnc(-c4ccc(C)cc4)c-3cn(Cc3ccc(F)cc3)c2c1`, > 80 µM (inactive).
Then `COc1cc2c3nnc(-c4ccc(C)c(C)c4)c-3cn(Cc3ccc(F)cc3)c2cc1OC`, with “inactive”; and `COc1cccc(OC)c1-c1nc(C(=O)N[C@@H](CC(C)C)C(=O)O)cn1-c1ccnc2cc(Cl)ccc12`, with > 80 µM (inactive).
Then `COc1cc2c3nnc(-c4ccc(F)cc4)c-3cn(Cc3ccncc3)c2cc1OC`, with > 80 µM (inactive); and `COc1ccc2c(c1)c1nnc(-c3ccc(F)cc3)c-1cn2Cc1ccc(F)cc1`, with “inactive”.
For the molecule `Fc1ccc(-c2nnc3c4cc5c(cc4n(Cc4ccccc4)cc2-3)OCO5)cc1`, the EC50 is > 80 µM (inactive).
Then `COc1cc2nc(C3CCC3)nc(N3CCN(c4ccccc4[N+](=O)[O-])CC3)c2cc1OC`, with > 80 µM (inactive).
Take `CCOc1ccc(-c2nnc3c4cc(OC)c(OC)cc4n(Cc4ccc(C)cc4)cc2-3)cc1`: the EC50 is > 80 µM (inactive).
The result for `COc1cc2nc(C3CC3)nc(N3CCN(C(=O)c4ccccc4OC)CC3)c2cc1OC` reads > 80 µM (inactive).
As for `COc1cc2c3nnc(-c4ccc(F)cc4)c-3cn(Cc3ccc(C)cc3C)c2cc1OC`, the 50% effective concentration (EC50) was 11 µM.
The result for `COc1cc2nc(CCN(C)C)nc(N3CCN(c4ccccc4OC)CC3)c2cc1OC` reads > 80 µM (inactive); that for `Cc1cccc(C)c1-c1nc(C(=O)N[C@@H](CC(C)C)C(=O)O)cn1-c1ccnc2cc(Cl)ccc12`, > 80 µM (inactive); that for `COc1cccc(OC)c1-c1cc(C(=O)N[C@@H](CC(C)C)C(=O)OC(C)(C)C)nn1-c1ccnc2cc(Cl)ccc12`, > 80 µM (inactive).
The result for `CC(C)C[C@H](NC(=O)c1cn(-c2ccnc3cc(Cl)ccc23)c(-c2c(Cl)cccc2Cl)n1)C(=O)O` reads > 80 µM (inactive); that for `Cc1ccc(-c2nnc3c4cc5c(cc4n(Cc4ccc(F)cc4)cc2-3)OCO5)cc1`, “inactive”.
`COc1cc2nc(C3CCC3)nc(N3CCN(c4ccccc4Cl)CC3)c2cc1OC`: the EC50 was > 80 µM (inactive).
The result for `Fc1ccc(Cn2cc3c(-c4ccc(F)cc4)nnc-3c3cc4c(cc32)OCO4)cc1` reads “inactive”; that for `COc1cc2nc(C3CC3)nc(N3CCN(c4ccccc4OC)CC3)c2cc1OC`, > 80 µM (inactive).
Then `COc1cc2c3nnc(-c4ccc(Cl)cc4)c-3cn(Cc3ccc(F)cc3)c2cc1OC`, with 8.36 µM; and `COc1ccc(-c2nnc3c4cc(OC)c(OC)cc4n(Cc4ccccc4)cc2-3)cc1`, with “inactive”; and `COc1cc2c3nnc(-c4ccc(F)cc4)c-3cn(Cc3ccc(F)cc3)c2cc1OC`, with “inactive”.
The result for `COc1cc2c3nnc(-c4ccc(F)cc4)c-3cn(Cc3cccc(C)c3)c2cc1OC` reads 10.2 µM and 9.29 µM; that for `CCOc1ccc(-c2nnc3c4cc(OC)c(OC)cc4n(Cc4ccc(F)cc4)cc2-3)cc1`, > 80 µM (inactive); that for `COc1ccccc1CN1CCN(c2nc(C3CC3)nc3cc(OC)c(OC)cc23)CC1`, > 80 µM (inactive).
Turning to `Cc1ccc(Cn2cc3c(-c4ccc(C)c(C)c4)nnc-3c3cc4c(cc32)OCO4)cc1`, the EC50 result is “inactive”.
The result for `COc1cccc(OC)c1-c1nc(C(=O)N[C@@H](CC(C)C)C(=O)O)cn1-c1ccnc2ccccc12` reads > 80 µM (inactive); that for `COc1cc2nc(CC3CC3)nc(N3CCN(c4ccccc4OC)CC3)c2cc1OC`, > 80 µM (inactive).
